Assay results: ChEMBL document CHEMBL5584310, “Phenanthrenes from Juncus articulatus with Antibacterial and Biofilm Formation Inhibitory Activity” (J Nat Prod, 2024)
Values after ≈ are worked out from the molar mass of the structure shown.

Assays:
Escherichia coli = assay: Antibacterial activity against Escherichia coli ATCC 25922 assessed as inhibition of bacterial growth incubated for 16 hrs; assay type: functional
Staphylococcus aureus [1] = assay: Antibacterial activity against methicillin-susceptible Staphylococcus aureus ATCC 6538 assessed as inhibition of bacterial growth incubated for 16 hrs; assay type: functional
Staphylococcus aureus [2] = assay: Antibacterial activity against methicillin-resistant Staphylococcus aureus ATCC 33592 assessed as inhibition of bacterial growth incubated for 16 hrs; assay type: functional
Pseudomonas aeruginosa = assay: Antibacterial activity against Pseudomonas aeruginosa PAO1 assessed as inhibition of bacterial growth incubated for 16 hrs; assay type: functional
Staphylococcus aureus [3] = assay: Antibiofilm activity against methicillin-susceptible Staphylococcus aureus ATCC 6538 assessed as biofilm eradication incubated for 24 hrs by crystal violet staining based microplate reader assay; assay type: functional
Staphylococcus aureus [4] = assay: Antibiofilm activity against methicillin-susceptible Staphylococcus aureus ATCC 6538 assessed as inhibition of biofilm formation incubated for 24 hrs by crystal violet staining based microplate reader assay; assay type: functional
SiHa = assay: Antiproliferative activity against human SiHa cells assessed as inhibition of cell growth incubated for 72 hrs by MTT assay; assay type: functional, cell-based
Staphylococcus aureus [5] = assay: Antibiofilm activity against methicillin-resistant Staphylococcus aureus ATCC 33592 assessed as inhibition of biofilm formation incubated for 24 hrs by crystal violet staining based microplate reader assay; assay type: functional
COLO 205 = assay: Antiproliferative activity against human COLO 205 cells assessed as inhibition of cell growth incubated for 72 hrs by MTT assay; assay type: functional, cell-based; settings: COLO 205, 72 h
COLO 320 = assay: Antiproliferative activity against human COLO 320 cells assessed as inhibition of cell growth incubated for 72 hrs by MTT assay; assay type: functional, cell-based; settings: COLO 320, 72 h
HeLa = assay: Antiproliferative activity against human HeLa cells assessed as inhibition of cell growth incubated for 72 hrs by MTT assay; assay type: functional, cell-based
Staphylococcus aureus [6] = assay: Antibiofilm activity against methicillin-resistant Staphylococcus aureus ATCC 33592 assessed as biofilm eradication incubated for 24 hrs by crystal violet staining based microplate reader assay; assay type: functional

Structure (SMILES)	MIC (Escherichia coli) [µM]	MIC (Staphylococcus aureus [1]) [µM]	MIC (Staphylococcus aureus [2]) [µM]	MIC (Pseudomonas aeruginosa) [µM]	MBEC (Staphylococcus aureus [3]) [µM]	MBIC (Staphylococcus aureus [4]) [µM]	IC50 (SiHa) [µM]	MBIC (Staphylococcus aureus [5]) [µM]	IC50 (COLO 205) [µM]	IC50 (COLO 320) [µM]	IC50 (HeLa) [µM]	MBEC (Staphylococcus aureus [6]) [µM]
C=Cc1c(C)c(O)cc2c1CCc1c-2ccc(O)c1C	> 481	481 (≈ 128 µg/mL)	481 (≈ 128 µg/mL)	> 481								
C=Cc1c(C)c(O)cc2c1ccc1c(C)c(O)ccc12	> 484	15.1 (≈ 3.99 µg/mL)	15.1 (≈ 3.99 µg/mL)	> 484	>484	15.1						
CC(=O)c1c(C)c(O)cc2c1ccc1c(C)c(O)ccc12	> 457	457 (≈ 128 µg/mL)	457 (≈ 128 µg/mL)	> 457								
C#Cc1c(C)c(O)cc2c1CCc1c-2ccc(O)c1C	> 485	121 (≈ 32.1 µg/mL)	121 (≈ 32.1 µg/mL)	> 485			25.3					
C=Cc1c(C)c(O)c(-c2cc3c(c(C)c2O)CCc2c(C=O)c(C)cc(O)c2-3)c2c1ccc1c(C)c(O)ccc12	> 121	60.5 (≈ 32.1 µg/mL)	121 (≈ 64.2 µg/mL)	> 121								
C=Cc1c(C)c(O)cc2c1ccc1c(C)c(Oc3c(O)c(C)c(C=C)c4ccc5c(C)c(O)ccc5c34)ccc12	> 243	122 (≈ 64 µg/mL)	122 (≈ 64 µg/mL)	> 243								
C=Cc1c(COC)c(O)cc2c1CCc1c-2ccc(O)c1C	> 413	413 (≈ 122 µg/mL)	413 (≈ 122 µg/mL)	> 413								
C=Cc1c(C)c(O)cc2c1CCc1c-2cc(-c2cc3c(c(C)c2O)CCc2c-3cc(O)c(C)c2C=C)c(O)c1C	> 121	60.5 (≈ 32.1 µg/mL)	60.5 (≈ 32.1 µg/mL)	> 121		121		242				
C#Cc1c(CO)c(O)cc2c1CCc1c-2ccc(O)c1C	> 457	57.1 (≈ 16 µg/mL)	57.1 (≈ 16 µg/mL)	> 457		114.3			12.3	12.3	12.3	
C=Cc1c(C)cc(O)c2c1CCc1c-2ccc(O)c1C	> 480	30 (≈ 7.99 µg/mL)	30 (≈ 7.99 µg/mL)	> 480		60		60	12.3	12.3	12.3	
C=Cc1c(COC)c(O)cc2c1ccc1c(C)c(O)ccc12	> 435	218 (≈ 64 µg/mL)	218 (≈ 64 µg/mL)	> 435								
C=CC1=C(C)C(=O)C=C2c3ccc(O)c(C)c3CC[C@@]21O	> 454	56.8 (≈ 16 µg/mL)	56.8 (≈ 16 µg/mL)	> 454		113.5						
C#Cc1c(C)c(O)cc2c1ccc1c(C)c(O)ccc12	> 488	15.3 (≈ 4.01 µg/mL)	15.3 (≈ 4.01 µg/mL)	> 488	>488	15.3						
C=Cc1c(CO)c(O)cc2c1ccc1c(C)c(O)ccc12	> 229	114 (≈ 32 µg/mL)	114 (≈ 32 µg/mL)	> 229		114.3						
C=Cc1c(C)cc(O)c2c1CCc1c-2cc(-c2c(O)c(C)c(C=C)c3ccc4c(C)c(O)ccc4c23)c(O)c1C	> 242	60.5 (≈ 32 µg/mL)	60.5 (≈ 32 µg/mL)	> 242		60.5		60.5	12.3	12.3	12.3	
C=Cc1c(C)c(O)cc2c3c(ccc12)C(C)(O)C(=O)C=C3 (stereo not drawn)	> 458	229 (≈ 64.2 µg/mL)	229 (≈ 64.2 µg/mL)	> 458								
C#Cc1c(CO)c(O)cc2c1ccc1c(C)c(O)ccc12	> 230	57.5 (≈ 16 µg/mL)	115 (≈ 32 µg/mL)	> 230		115		114.3				
C=Cc1c(CO)cc(O)c2c1CCc1c-2ccc(O)c1C	> 454	114 (≈ 32 µg/mL)	114 (≈ 32 µg/mL)	> 454		227		227	12.3	12.3	12.3	
C=Cc1c(C)c(Oc2c(O)c(C)c(C=C)c3ccc4c(C)c(O)ccc4c23)cc2c1ccc1c(C)c(O)ccc12	> 121	60.5 (≈ 31.9 µg/mL)	60.5 (≈ 31.9 µg/mL)	> 121		121						
O=C(O)c1cn(C2CC2)c2cc(N3CCNCC3)c(F)cc2c1=O [CIPROFLOXACIN]		0.37 (≈ 0.123 µg/mL)	0.37 (≈ 0.123 µg/mL)	0.37 (≈ 0.123 µg/mL)	>386.7	0.75						
CN[C@H](CC(C)C)C(=O)N[C@H]1C(=O)N[C@@H](CC(N)=O)C(=O)N[C@H]2C(=O)N[C@H]3C(=O)N[C@H](C(=O)N[C@H](C(=O)O)c4cc(O)cc(O)c4-c4cc3ccc4O)[C@H](O)c3ccc(c(Cl)c3)Oc3cc2cc(c3O[C@@H]2O[C@H](CO)[C@@H](O)[C@H](O)[C@H]2O[C@H]2C[C@](C)(N)[C@H](O)[C@H](C)O2)Oc2ccc(cc2Cl)[C@H]1O [VANCOMYCIN]	177 (≈ 256 µg/mL)		1.38 (≈ 2 µg/mL)	1770 (≈ 2560 µg/mL)	>88.3			1.38				>88.3
